According to patent US9670223B2, “Compounds with super-aspirin effects” (SOLVOTRIN THERAPEUTICS LTD., priority 2011, dated 2017):
Entries after “also recorded” stand apart in the source; their conditions may differ.

Columns and labels:
[1] = GI tolerability testing: gastric ulcerogenic effect in rats; format: in vivo; details: rat, aspirin 30 mg/Kg daily or molar equivalent doses, oral gavage, 3 days
Method: In this study, rats are fed Aspirin 30 mg/Kg daily or molar equivalent doses of ISAS, ISANA (“Nicotinate”), ISANO “Meta” nitrate or ISAMNA in oral gavage daily for 3 days (n=3 per group). At the end of the dosing period, all animals were sacrificed, stomachs removed and were immersed in 2% formalin for at least 10 min to fix the gastric tissue wall, and will opened along the greater curvature for scoring for irritation or hemorrhagic lesions or ulcers developed in the corpus mucosa under a dissecting microscope on a 5-point scale. The percentage of stomach surface area showing ulcers was recorded for each animal and expressed as a percentage.

washed platelet samples = test: Collagen-induced platelet aggregation in the TCIPA studies (washed platelets); format: cell-based, human; details: Homo sapiens, Platelet; aspirin 300 μM, n=4
59M cells = test: Flow-mediated TCIPA using an ultrasound standing wave trap; format: cell-based, human; details: 500 μM, 59M cell cluster
Excerpt: The ultrasound trap had three essential features: a transducer (Ferroperm, Kvistgard, Denmark) in a housing of radial symmetry, an aqueous phase and a reflector that provided optical access from above. The trap was driven with a function generator (Hewlett Packard 33120A, UK). Microscopic observation occurred with a fast, high-resolution XM10 camera (Soft Imaging System, SIS, GmbH) mounted on an Olympus BX51M reflection epi-fluorescence microscope. Images were captured by a standard PC equipped with the Cell-D image acquisition software (Soft Imaging System, SIS, GmbH).
The experimental procedure was as follows: 59M cells were introduced into the trap, the acoustic field (2.13 MHz, 0.85 MPa) was initiated and cell clusters were allowed to form. Clusters remained levitated in suspension for 10 min. Washed platelets (2.5×10^8/ml) were introduced into the trap at a flow rate of 3 μl/min. Perfusion of washed platelets around the cluster proceeded following initial adhesion of platelets to the periphery of the cluster.
To study the effect of aspirin and aspirin prodrugs in TCIPA, washed platelets were pre-incubated for 10 min at room temperature with the inhibitors: aspirin, nicotinate, ISAS, ISMNA, ortho and meta (all at a concentration of 500 μM), prior to their introduction into the ultrasound trap. […] The cell cluster-platelet aggregate remained under microscopic observation for further 10 min (the upper time limit established in the current study) under continuous flow conditions. Further experiments were performed with ST0702 salicylate (500 μM).

Row | SMILES | gastric ulcerogenic effect [1] | inhibition at 300 µM (washed platelet samples) [%] | inhibition of TCIPA under flow conditions (platelet-tumour cell disruption) (59M cells)
1 | CC(=O)Oc1ccccc1C(=O)O [Aspirin] | significant gastric ulcerogenic effect | 56 ± 7 | 
2 | CC(=O)Oc1ccccc1C(=O)O[C@H]1CO[C@H]2[C@@H]1OC[C@H]2OC(=O)c1cccnc1 [ST0702, isosorbide-2-aspirinate-5-nicotinate] |  |  | significantly arrested TCIPA; also recorded: effectively inhibit
